pEC50: −log10 of the molar value. In brackets after ≈: the same amount, converted by molar mass.
How the values were obtained:
P. aeruginosa PBP3 = biological target: T1, P. aeruginosa PBP3 (Pseudomonas aeruginosa, UniProt G3XD46); experiment: Bocillin-FL fluorescence polarization competition binding assay, P. aeruginosa PBP3; details: fluorescence polarization competition binding assay using Bocillin-FL
T1 construct: made in house
Method in brief: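 Binding of boronic acid inhibitors to purified Pseudomonas aeruginosa (PA01) PBP3 was measured by fluorescence polarization competition with Bocillin-FL, a fluorescent penicillin V. Reactions of 80 μl contained 0.75 μM PBP3 and 0.1 μM Bocillin-FL in 50 mM Hepes (pH 8.0), 300 mM NaCl and 5% (v/v) glycerol, in black 384-well plates. FP (Excitation 490 nm, Emission 520 nm) was read for up to 60 minutes. EC50 is the concentration that halves PBP-bound Bocillin-FL.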

N. gonorrhoeae WHO L = experiment: Liquid broth MIC in Fastidious broth; type: cell-based; details: Neisseria gonorrhoeae; N. gonorrhoeae strain WHO L; Fastidious broth; read-out: Minimum Inhibitory Concentration, N. gonorrhoeae WHO L
Method in brief: (§1)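 Colonies were swabbed from chocolate agar after 24 h growth and standardised by optical density at 600 nm. Compounds were serially diluted twofold in Fastidious broth, and bacteria added to give 5×10^5 CFU/mL. After about 24 h at 36 °C in 5% CO2, the lowest concentration allowing under 10% growth was taken as MIC.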

N. gonorrhoeae H041 = experiment: Liquid broth MIC in Fastidious broth; type: cell-based; details: Neisseria gonorrhoeae, H041, read-out: Minimum Inhibitory Concentration, N. gonorrhoeae H041
Method in brief: (§2)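 MIC = lowest concentration giving <10% growth relative to untreated wells, scored by eye after ~24 h at 36 °C, 5% CO2. Strains carry mosaic PBP2; inoculum 5×10^5 CFU/mL in Fastidious broth with 2-fold serial compound dilutions.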

[1] = tested on: N. gonorrhoeae ATCC 49226; experiment: Liquid broth MIC in Fastidious broth; type: cell-based; details: Neisseria gonorrhoeae, ATCC49226; N. gonorrhoeae strain ATCC 49226; Fastidious broth; read-out: Minimum Inhibitory Concentration, N. gonorrhoeae ATCC 49226
Method in brief: as §1

N. gonorrhoeae WHO K = experiment: Liquid broth MIC in Fastidious broth; type: cell-based; details: Neisseria gonorrhoeae, read-out: Minimum Inhibitory Concentration, N. gonorrhoeae WHO K
Method in brief: as §2

N. gonorrhoeae WHO G = experiment: Liquid broth MIC in Fastidious broth; type: cell-based; details: Neisseria gonorrhoeae; N. gonorrhoeae strain WHO G; Fastidious broth; read-out: Minimum Inhibitory Concentration, N. gonorrhoeae WHO G
Method in brief: as §1

N. gonorrhoeae FA1090 = experiment: Liquid broth MIC in Fastidious broth; type: cell-based; details: Neisseria gonorrhoeae; N. gonorrhoeae strain FA1090; Fastidious broth; read-out: Minimum Inhibitory Concentration, N. gonorrhoeae FA1090
Method in brief: as §1

E. coli K12 PBP3 = biological target: T2, E. coli K12 PBP3 (Escherichia coli, UniProt P0AD68); experiment: biochemical; type: binding
T2 construct: made in house
T2 sequence (P0AD68 1-577): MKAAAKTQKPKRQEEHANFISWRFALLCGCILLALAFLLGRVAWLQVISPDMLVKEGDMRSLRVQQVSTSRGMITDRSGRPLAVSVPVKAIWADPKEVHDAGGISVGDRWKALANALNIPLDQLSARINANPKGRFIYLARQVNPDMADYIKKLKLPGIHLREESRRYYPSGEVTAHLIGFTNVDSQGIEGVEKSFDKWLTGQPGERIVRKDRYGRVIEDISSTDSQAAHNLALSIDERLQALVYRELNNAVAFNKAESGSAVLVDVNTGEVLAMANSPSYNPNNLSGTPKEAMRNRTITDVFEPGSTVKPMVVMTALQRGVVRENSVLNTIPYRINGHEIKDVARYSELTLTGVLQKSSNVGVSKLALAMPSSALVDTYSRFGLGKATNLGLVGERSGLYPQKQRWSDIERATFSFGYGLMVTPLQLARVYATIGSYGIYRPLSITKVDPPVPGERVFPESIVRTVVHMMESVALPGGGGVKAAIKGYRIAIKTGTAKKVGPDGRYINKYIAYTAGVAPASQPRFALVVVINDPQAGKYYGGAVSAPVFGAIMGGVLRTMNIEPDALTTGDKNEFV
Method in brief: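 Fluorescence polarization (ex 490/em 520 nm) competition of inhibitors against Bocillin-FL at 0.1 μM, read up to 60 min. Final PBP levels: E. coli PBP3 1.5 μM; A. baumannii PBP2 2.5 μM, PBP3 0.2 μM in Tris pH 8.0/NaCl/glycerol/Tween 20; N. gonorrhoeae PBP2 […] in Hepes pH 8.0/NaCl/glycerol. EC50 = concentration halving PBP-bound Bocillin-FL.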

T1 sequence (G3XD46 whole entry): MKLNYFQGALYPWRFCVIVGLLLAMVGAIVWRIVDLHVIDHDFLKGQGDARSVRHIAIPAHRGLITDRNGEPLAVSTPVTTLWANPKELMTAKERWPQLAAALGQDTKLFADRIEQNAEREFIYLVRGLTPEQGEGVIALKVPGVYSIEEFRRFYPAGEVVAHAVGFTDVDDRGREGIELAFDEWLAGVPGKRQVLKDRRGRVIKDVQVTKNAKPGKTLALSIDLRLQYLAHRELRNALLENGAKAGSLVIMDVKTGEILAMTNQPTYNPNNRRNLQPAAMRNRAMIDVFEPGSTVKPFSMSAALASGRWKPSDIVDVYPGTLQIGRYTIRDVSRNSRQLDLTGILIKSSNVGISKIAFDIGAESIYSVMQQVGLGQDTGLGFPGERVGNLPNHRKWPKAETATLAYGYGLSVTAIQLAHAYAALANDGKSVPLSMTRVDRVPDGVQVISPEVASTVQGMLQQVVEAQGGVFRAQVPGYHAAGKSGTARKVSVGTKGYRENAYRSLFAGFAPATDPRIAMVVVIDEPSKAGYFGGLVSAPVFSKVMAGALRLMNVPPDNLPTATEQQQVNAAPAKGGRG

SMILES	P. aeruginosa PBP3 Potency (P. aeruginosa PBP3)	MIC (N. gonorrhoeae WHO L) [µg/mL]	MIC (N. gonorrhoeae H041) [µg/mL]	MIC [1] [µg/mL]	MIC (N. gonorrhoeae WHO K) [µg/mL]	MIC (N. gonorrhoeae WHO G) [µg/mL]	MIC (N. gonorrhoeae FA1090) [µg/mL]	pEC50 (E. coli K12 PBP3)
CCN1CCN(C(=O)NC(C(=O)N[C@H]2Cc3ccc(F)c(C(=O)O)c3OB2O)c2cc(F)c(O)c(O)c2Cl)C(=O)C1=O (stereo partly drawn) [Example 42, (3R)-3-(2-(2-chloro-5-fluoro-3,4-dihydroxyphenyl)-2-(4-ethyl-2,3-dioxopiperazine-1-carboxamido)acetamido)-7-fluoro-2-hydroxy-3,4-dihydro-2H-benzo[e][1,2]oxaborinine-8-carboxylic acid]	D (D represents a potency <10 μM)	> 64	16 to 32 (≈ 26.2 to 52.4 µM)	16 to 32 (≈ 26.2 to 52.4 µM)	16 to 32 (≈ 26.2 to 52.4 µM)	16 to 32 (≈ 26.2 to 52.4 µM)	4 to 8 (≈ 6.55 to 13.1 µM)	> 4.52
NCCCN1CCN(C(=O)N[C@H](C(=O)N[C@H]2Cc3ccc(F)c(C(=O)O)c3OB2O)c2ccc(O)c(O)c2Cl)C(=O)C1=O (single isomer, unassigned) [Example 28]	B (B represents a potency between 30 μM and 500 μM inclusive)	> 64	> 64	> 64	> 64	> 64	> 64	3.30 to 4.52
N=C(N)NCCN1CCN(C(=O)NC(C(=O)N[C@H]2Cc3ccc(F)c(C(=O)O)c3OB2O)c2ccc(C(=O)O)c(F)c2)C(=O)C1=O (stereo partly drawn) [Example 78, (3R)-3-(2-(4-carboxy-3-fluorophenyl)-2-(4-(2-guanidinoethyl)-2,3-dioxopiperazine-1-carboxamido)acetamido)-7-fluoro-2-hydroxy-3,4-dihydro-2H-benzo[e][1,2]oxaborinine-8-carboxylic acid]	D (D represents a potency <10 μM)	> 64	> 64	16 to 32 (≈ 24.8 to 49.6 µM)	> 64	4 to 8 (≈ 6.2 to 12.4 µM)	4 to 8 (≈ 6.2 to 12.4 µM)	3.30 to 4.52
NCCCN1CCN(C(=O)NC(C(=O)N[C@H]2Cc3cccc(C(=O)O)c3OB2O)c2ccc(C(=O)O)cc2)C(=O)C1=O (stereo partly drawn) [Example 39, (3R)-3-(2-(4-(3-aminopropyl)-2,3-dioxopiperazine-1-carboxamido)-2-(4-carboxyphenyl)acetamido)-2-hydroxy-3,4-dihydro-2H-benzo[e][1,2]oxaborinine-8-carboxylic acid]	D (D represents a potency <10 μM)	16 to 32 (≈ 27.5 to 55 µM)	> 64	4 to 8 (≈ 6.88 to 13.8 µM)	> 64	4 to 8 (≈ 6.88 to 13.8 µM)	1 to 2 (≈ 1.72 to 3.44 µM)	> 4.52
O=C(NC(C(=O)N[C@H]1Cc2ccc(F)c(C(=O)O)c2OB1O)c1ncc(O)cc1F)c1ccnc(F)c1 (stereo partly drawn) [Example 53, (3R)-7-fluoro-3-(2-(3-fluoro-5-hydroxypyridin-2-yl)-2-(2-fluoroisonicotinamido)acetamido)-2-hydroxy-3,4-dihydro-2H-benzo[e][1,2]oxaborinine-8-carboxylic acid]	D (D represents a potency <10 μM)	> 64	> 64	> 64	> 64	> 64	4 to 8 (≈ 7.75 to 15.5 µM)	3.30 to 4.52
CCN1CCN(C(=O)N[C@H](C(=O)N[C@H]2Cc3cccc(C(=O)O)c3OB2O)c2cc(O)cc(O)c2)C(=O)C1=O (single isomer, unassigned) [Example 81]	B (B represents a potency between 30 μM and 500 μM inclusive)	16 to 32 (≈ 29.6 to 59.2 µM)	16 to 32 (≈ 29.6 to 59.2 µM)	4 to 8 (≈ 7.4 to 14.8 µM)	16 to 32 (≈ 29.6 to 59.2 µM)	0.25 to 0.5 (≈ 0.463 to 0.925 µM)	0.25 to 0.5 (≈ 0.463 to 0.925 µM)	< 3.30
CCN1CCN(C(=O)NC(C(=O)N[C@H]2Cc3ccc(C=O)c(C(=O)O)c3OB2O)c2csc(N)n2)C(=O)C1=O (stereo partly drawn) [Example 57, (3R)-3-(2-(2-aminothiazol-4-yl)-2-(4-ethyl-2,3-dioxopiperazine-1-carboxamido)acetamido)-7-formyl-2-hydroxy-3,4-dihydro-2H-benzo[e][1,2]oxaborinine-8-carboxylic acid]	C (C represents a potency between 10 and 30 μM)	> 64	> 64	16 to 32 (≈ 28.7 to 57.3 µM)	> 64	16 to 32 (≈ 28.7 to 57.3 µM)	4 to 8 (≈ 7.16 to 14.3 µM)	3.30 to 4.52
CCN1CCN(C(=O)NC(C(=O)N[C@H]2Cc3cccc(C(=O)O)c3OB2O)c2ccc(O)c(N(S(C)(=O)=O)S(C)(=O)=O)c2)C(=O)C1=O (stereo partly drawn) [Example 21, (3R)-3-(2-(4-ethyl-2,3-dioxopiperazine-1-carboxamido)-2-(4-hydroxy-3-(N-(methylsulfonyl)methylsulfonamido)phenyl)acetamido)-2-hydroxy-3,4-dihydro-2H-benzo[e][1,2]oxaborinine-8-carboxylic acid]	D (D represents a potency <10 μM)	> 64	> 64	> 64	> 64	> 64	4 to 8 (≈ 5.75 to 11.5 µM)	> 4.52
CCN1CCN(C(=O)NC(C(=O)N[C@H]2Cc3ccc(CO)c(C(=O)O)c3OB2O)c2csc(N)n2)C(O)C1=O (stereo partly drawn) [Example 58, (3R)-3-(2-(2-aminothiazol-4-yl)-2-(4-ethyl-2-hydroxy-3-oxopiperazine-1-carboxamido)acetamido)-2-hydroxy-7-(hydroxymethyl)-3,4-dihydro-2H-benzo[el][1,2]oxaborinine-8-carboxylic acid]	B (B represents a potency between 30 μM and 500 μM inclusive)	> 64	> 64	> 64	> 64	> 64	> 64	3.30 to 4.52
NS(=O)(=O)NC(C(=O)N[C@H]1Cc2ccc(F)c(C(=O)O)c2OB1O)c1ncc(O)cc1F (stereo partly drawn) [Example 43, (3R)-7-fluoro-3-(2-(3-fluoro-5-hydroxypyridin-2-yl)-2-(sulfamoylamino)acetamido)-2-hydroxy-3,4-dihydro-2H-benzo[e][1,2]oxaborinine-8-carboxylic acid]	C (C represents a potency between 10 and 30 μM)	> 64	> 64	> 64	> 64	> 64	> 64	< 3.30
CS(=O)(=O)N1CCN(C(=O)NC(C(=O)N[C@H]2Cc3ccc(F)c(C(=O)O)c3OB2O)c2ccc(O)c(O)c2Cl)C1=O (stereo partly drawn) [Example 23, (3R)-3-(2-(2-chloro-3,4-dihydroxyphenyl)-2-(3-(methylsulfonyl)-2-oxoimidazolidine-1-carboxamido)acetamido)-7-fluoro-2-hydroxy-3,4-dihydro-2H-benzo[e][1,2]oxaborinine-8-carboxylic acid]	D (D represents a potency <10 μM)	> 64	> 64	> 64	> 64	16 to 32 (≈ 26 to 52.1 µM)	4 to 8 (≈ 6.51 to 13 µM)	> 4.52
O=C(NC(C(=O)N[C@H]1Cc2ccc(F)c(C(=O)O)c2OB1O)c1ncc(O)cc1F)c1ccc(O)c(O)c1Cl (stereo partly drawn) [Example 8, (3R)-3-(2-(2-chloro-3,4-dihydroxybenzamido)-2-(3-fluoro-5-hydroxypyridin-2-yl)acetamido)-7-fluoro-2-hydroxy-3,4-dihydro-2H-benzo[e][1,2]oxaborinine-8-carboxylic acid]	D (D represents a potency <10 μM)	> 64	> 64	> 64	> 64	16 to 32 (≈ 28.4 to 56.8 µM)	4 to 8 (≈ 7.1 to 14.2 µM)	3.30 to 4.52
